Laboratory results: US20220288048A1, “PIMAVANSERIN FOR TREATING SCHIZOPHRENIA OR FOR TREATING PSYCHOSIS SECONDARY TO NEURODEGENERATIVE DISORDERS OR DEPRESSIVE DISORDER” (ACADIA Pharmaceuticals Inc., priority 2019, published 2022)
Entries after “also recorded” stand apart in the source; their conditions may differ.

How the values were obtained:
Assay type in all cases: in vivo
[1] = test system: scPCP-treated C57BL/6J mice; test: 10-min social interaction test in scPCP-treated mice; settings: 45 min prior to test
Description: Negative symptoms model: The behavioral assay utilized to assess negative symptoms was social interaction (SI) task.
(§1) Briefly, mice were habituated to the test arena (i.e., the NOR box) for 30 minutes prior to the test day. Pairs of mice, unfamiliar to each other, received either the same treatment (e.g., vehicle and vehicle; N=10 pairs) or different treatments (e.g., vehicle; N=10 and phencyclidine (PCP) 10 mg/kg; N=10). After washout, they were placed in the test arena together for 10 minutes. A heavy object made of Plexiglas or metal was placed in the center of the test arena to quantify the time and nature of interaction of the test animals with an unfamiliar object or an unfamiliar animal. After the 10 min test phase, the object and the arena were cleaned with 70% ethanol to remove any olfactory trails. Behavior was recorded on video for subsequent blind scoring.
(§2) The following four behaviors were scored for each animal: • a) Sniffing: A normal mouse engages in sniffing the con-specific mouse's body, including the anogenital area • b) Following: A normal mouse pursues a con-specific mouse around the arena • c) Avoiding: A normal mouse avoids the con-specific mouse and move away from a pursuing mouse if approached • d) Object Exploration: A normal mouse explores the object that is placed in the center of the test arena.
scPCP treatment involved intraperitoneal injection (ip) of 10 mg/kg PCP to male C57BL/6J mice, twice daily (bid) for 7 days, followed by 7 days washout. To test the effect of atypical APD or pimavanserin in scPCP-treated mice (N=10 pairs of mice per group), risperidone was administered as 0.05 mg/kg ip or 0.2 mg/kg ip; and pimavanserin was administered as 3 mg/kg ip or 6 mg/kg ip to scPCP-treated mice 45 minutes prior to the commencement of the social interaction task in the 10 min social interaction test.

[2] = test system: scPCP+ARS(2h) treated male C57BL/6J mice; test: 10-min social interaction test in scPCP-treated mice given 2 h acute restraint stress (treatment-resistant model); settings: for Able to restore sniffing or decrease avoidance (SI deficit), drug alone: risperidone 0.2, olanzapine 1, aripiprazole 1 or pimavanserin 3 mg/kg ip alone, 45 min prior to test
Description: as §1, §2
Acute restraint stress (ARS) protocol: Mice were assigned to one of two groups: either the control group (non-stress) or the stress group. Generally, mice of the stress group were restrained in well-ventilated 50 mL tubes. After the restraint period of 1 or 2 hours, the mice were transferred into a clean animal housing cage for 1-hour interval and thereafter went through the first social interaction test (different mice are used to test different groups).
Treatment resistant animal model: To establish this model, Acute restraint stress (ARS) was added to scPCP treatment. Two groups (vehicle+ARS; scPCP+ARS) and their controls (vehicle+saline; scPCP+saline) were used. ARS was applied for 1 or 2 hours and tested on SI 1 hour post-ARS.
(§3) The behavioral assay, ARS protocol, and scPCP-treatment as described in Example 2 were used. To test the effect of atypical APD and pimavanserin, alone or as con-administration, in scPCP-treated mice (N=10 pairs of mice per group) given 2 h ARS, risperidone (“Risp”) was administered as 0.2 mg/kg or 0.4 mg/kg ip; olanzapine (“Olan”) as 1.0 mg/kg ip; aripiprazole (“Aripi”) as 1.0 mg/kg ip; and pimavanserin (“Pim”) as 3 mg/kg ip to scPCP+ARS(2h) treated male C57BL/6J mice 45 minutes prior to the commencement of the social interaction task in the 10 min social interaction test. Plasma levels of risperidone were measured using a Triple Quad 6500+ mass spectrometer.

[3] = Plasma levels of risperidone in scPCP and ARS-treated mice (mass spectrometer)
Description: as §3

| Compound | SI deficit produced by scPCP: time exploring the conspecific mouse ([1]; risperidone 0.05 mg/kg ip) | SI deficit produced by scPCP: time exploring the conspecific mouse ([1]; risperidone 0.2 mg/kg ip) | Effect on SI deficit, doubled dose ([2]; risperidone 0.4 mg/kg ip) | Able to restore sniffing or decrease avoidance (SI deficit), drug alone [2] | Plasma levels of risperidone ([3]; 0.2 mg/kg risperidone group) | Plasma levels of risperidone ([3]; 0.2 mg/kg risperidone plus 3 mg/kg pimavanserin group) | Plasma levels of risperidone ([3]; 0.4 mg/kg risperidone group) |
| --- | --- | --- | --- | --- | --- | --- | --- |
| Cc1nc2n(c(=O)c1CCN1CCC(c3noc4cc(F)ccc34)CC1)CCCC2 [risperidone] | sub-effective | spent more time exploring the conspecific mouse | ineffective | Neither; also recorded: ineffective | 5.4±0.1 | 5.3±0.6 | 8.0±3.3 |
| O=C1CCc2ccc(OCCCCN3CCN(c4cccc(Cl)c4Cl)CC3)cc2N1 [aripiprazole] |  |  |  | Neither |  |  |  |
